Measured values from patent US20020026053A1, “Novel 3-(substituted) -2- indolinones compounds and use thereof as inhibitors of protein kinase activity” (priority 1997, published 2002).

Experiments:
PDGF-R = PDGF-R Assay (cellular ELISA, U1242 cells); assay type: cell-based; set-up: concentration or dose not given beside the values
Method in brief: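 U1242 cells seeded in 0.5% serum, serum-starved, then exposed to compound for 2 hr at 37°C before 5–10 min ligand stimulation and lysis in HNTG. Lysate captured on receptor-antibody-coated plates; phosphotyrosine detected with polyclonal anti-pTyr, goat anti-rabbit IgG and ABTS/H2O2, A410 (ref 630 nm), versus untreated cells.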

FLK-1 receptor = experiment: FLK-1 Assay (cellular/catalytic ELISA, VEGF-stimulated phosphotyrosine); assay type: cell-based; set-up: concentration or dose not given beside the values
Method in brief: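 NIH3T3 C7#3 cells engineered to express Flk-1 were serum-starved overnight (0.1% FBS), then exposed to compound for 2 h at 37 °C (final dilution 1:200, 0.5% DMSO) before VEGF stimulation. Lysates captured on anti-FLK-1 antiserum plates; phosphotyrosine detected by UB40 antibody/POD-ABTS ELISA versus untreated controls.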

SMILES	PDGF Kinase % Inhibition (P.119) (PDGF-R)	Flk Kinase % Inhibition (P.110) (FLK-1 receptor)
Cc1c(Br)cc(Br)c2c1C(=Cc1ccc([N+](=O)[O-])c(O)c1)C(=O)N2 [10724/H04]	−13.1%	−3.0%
Cc1c(Br)cc(Br)c2c1C(=Cc1cc3c4c(c1O)CCCN4CCC3)C(=O)N2 [10724/H05]	−19.4%	−0.4%
Cc1c(Br)cc(Br)c2c1C(=Cc1cc(C(C)C)c(O)c(C(C)C)c1)C(=O)N2 [10724/H06]	−20.8%	−5.1%
Cc1c(Br)cc(Br)c2c1C(=Cc1cc3ccccc3o1)C(=O)N2 [10724/H07]	−39.6%	1.1%
COc1cc(O)c(C=C2C(=O)Nc3c(Br)cc(Br)c(C)c32)c(OC)c1 [10724/H08]	−9.0%	13.1%
Cc1c(Br)cc(Br)c2c1C(=Cc1cccn1-c1ccc(Cl)cc1)C(=O)N2 [10724/H09]	−13.1%	1.3%
CCc1ccc(C=C2C(=O)Nc3c(Br)cc(Br)c(C)c32)o1 [10724/H10]	−2.7%	5.8%
Cc1c(Br)cc(Br)c2c1C(=Cc1sc3scc(C)c3c1C)C(=O)N2 [10724/H11]	−31.2%	8.6%
Cc1c(Br)cc(Br)c2c1C(=Cc1sccc1Br)C(=O)N2 [10725/H02]	−19.9%	−7.6%
COc1ccc(Br)c(C=C2C(=O)Nc3c(Br)cc(Br)c(C)c32)c1O [10725/H03]	−12.8%	−5.8%
Cc1ccc(C=C2C(=O)Nc3c(Br)cc(Br)c(C)c32)o1 [10725/H04]	−4.1%	−5.1%
Cc1cc(C=C2C(=O)Nc3c(Br)cc(Br)c(C)c32)[nH]n1 [10725/H05]	14.6%	21.6%
COc1cc(C)cc(O)c1C=C1C(=O)Nc2c(Br)cc(Br)c(C)c21 [10725/H06]	6.9%	16.1%
Cc1c(Br)cc(Br)c2c1C(=Cc1ccc(N3CCN(C=O)CC3)cc1)C(=O)N2 [10725/H07]	2.6%	8.6%
Cc1c(Br)cc(Br)c2c1C(=Cc1ccc(N3CCOCC3)cc1)C(=O)N2 [10725/H08]	13.6%	17.2%
COC(=O)Cc1c(Cl)[nH]c(C=C2C(=O)Nc3c(Br)cc(Br)c(C)c32)c1C(=O)OC [10725/H09]	9.3%	−6.1%
Cc1c(Br)cc(Br)c2c1C(=Cc1c(Br)cnn1-c1ccc(Cl)cc1)C(=O)N2 [10725/H10]	12.2%	7.8%
Cc1c(Br)cc(Br)c2c1C(=Cc1c[nH]cn1)C(=O)N2 [10725/H11]	16.5%	−40.8%
Cc1c(Br)cc(Br)c2c1C(=Cc1ccccc1[N+](=O)[O-])C(=O)N2 [10726/H02]	−8.3%	−8.5%
CCOC(=O)c1[nH]c(C=C2C(=O)Nc3c(Br)cc(Br)c(C)c32)c(C(=O)OC)c1C [10726/H03]	−17.8%	0.4%
